Assay [1] relates to blood vessel development and/or lymphangiogenesis in Xenopus embryos. Format: in vivo, Xenopus laevis. In short, it runs like this:
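Albino Xenopus embryos treated at 20 μM final (from 10-mM DMSO stocks) in screening medium, 7 per well, from stage 31 (37 hpf) to stage 35/36 (50 hpf) or 42 (80 hpf). Fixed in 4% paraformaldehyde and scored by whole-mount in situ hybridization: vasculogenesis and intersomitic vein angiogenesis at stage 35/36, lymph vessel development at stage 42.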

In assay [2] the test system is LEC. Nature of the assay: LEC cell proliferation assay. Format: cell-based, human. As to conditions: Homo sapiens, 48 h, 10 μM in 0.1% DMSO, 48 hours; read-out: LEC proliferation. In short, it runs like this:
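HUVEC and LEC in EBM with 20% FBS, hydrocortisone and dibutyryl-cAMP were treated with compound at 10 μM in 0.1% DMSO for 48 hours. Viable cells read by fluorescence, in five replicates.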

For a further assay, the system named is HUVEC. Kind of assay: HUVEC tube formation assay. Format: cell-based, human. As to conditions: Homo sapiens, HUVEC, 1 μM in 0.1% DMSO. In short, it runs like this:
(§1)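 HUVEC and LEC in EBM with 20% FBS, hydrocortisone and dibutyryl-cAMP, up to eleven passages, treated overnight at 37 °C with compound at 1 μM in 0.1% DMSO, then fixed in 4% paraformaldehyde. Read-out: total tube length (μm) per area over three hotspot images per well, triplicate wells.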

Assay [3] relates to LEC. Kind of assay: cells. It counts as cell-based, human. To be noted: Homo sapiens; for activity at 1 µM: 1 μM in 0.1% DMSO. In short, it runs like this:
as §1

The subject of assay [4] is VEGFA-induced dermal neovascularization. Kind of assay: Matrigel plug implantation assay (VEGFA-induced angiogenesis and lymphatic vessel enlargement). It counts as in vivo, mouse. As to conditions: mice, 3 mg/kg/day orally, 6 days. The method, then:
The mouse studies were conducted under protocols approved by the Veterinary Office of the Canton of Zurich, Switzerland (permit #123/2005). Nine week-old female wild-type FVB mice (Charles River) were used for the experiments (n=6 per group). Prior to Matrigel implantation, the mice were anesthetized by intraperitoneal injection of 200 μl of Dormitor (20 μg/ml medetomidine; Pfizer) and Narketan 10 (8 mg/ml ketamine; Vétoquinol). The left hip of the animals were shaved and subsequently Matrigel was implanted by intradermal injection of 100 μl of unpolymerized growth factor-reduced Matrigel (BD Biosciences) containing 0.5 mg/ml recombinant human VEGFA (#0081109; National Cancer Institute, USA). The mice were treated orally with either 200 μl PEG-400 (Fluka; pH adjusted to 5.2; control group) or with 200 μl PEG-400 containing […] naphthyridine (3 mg/kg/day). Another control group of mice received Matrigel without VEGFA and was treated with 200 μl PEG-400. The treatment was given once daily for six days. Weight and appearance of animals was monitored daily. On the 7th day, the Matrigel implants were removed from the euthanized mice for immunocytochemical examination. The Matrigel implants were frozen in Tissue-Tek O.C.T. compound (Sakura Finetek), sectioned, and processed as described previously (Kajiya et al., 2005). In brief, 6-μm frozen sections were fixed in −20° C. acetone for two minutes and in cold 80% methanol for five minutes, followed by incubation with antibodies against the lymphatic-specific marker LYVE1 (1:1,000; Millipore) and against the pan-endothelial marker […] (anti-mouse; 1:50; BD Biosciences). Corresponding secondary antibodies were labeled with Alexa 488 or Alexa 594 (Invitrogen). Nuclei were counterstained with 20 μg/ml Hoechst 33342 (Invitrogen). Sections were examined under an Axioskop 2 mot plus microscope and digital images were taken using an AxioCam MRc camera (Carl Zeiss). Three pictures each were taken of vascularized areas around the Matrigel implants (maximal distance from the implant: 500 μm). The vessel density, average vessel size and the average tissue area occupied by vessels were determined in CD31/LYVE1 stained sections using the IPLab software (BD Biosciences) as described (Kajiya et al., 2005).
The adenosine A1 receptor antagonist naphthyridine was identified as a novel inhibitor of lymphatic and blood vessel formation in Xenopus tadpoles and in vitro cellular assays, where it acted anti-mitogenic and impaired endothelial tube formation. […] It can be concluded that the ability of naphthyridine to inhibit lymph and blood vessel angiogenesis is conserved between Xenopus and mammals.

Data on one compound can be found in patent publication US9945845B2, “Methods of screening using amphibians” (priority 2009, dated 2018).

Entries after “also recorded” stand apart in the source; their conditions may differ. Like-named read-outs stand apart in the source and are kept apart here.

In general, IC50 refers to the concentration that gives 50% inhibition. Turning to `Oc1cc(-c2ccccc2)nc2nc(Cl)ccc12` [7-Chloro-4-hydroxy-2-phenyl-1,8-naphthyridine], the “blood vessel development phenotype (apj expression, in words)” value in assay [1] (20 μM from stage 31, fixed at stage 35/36) was “interfered not only with ISV angiogenesis but also with VVN assembly”. In assay [1] (20 μM from stage 31, fixed at stage 42), the “lymph vessel development phenotype (vegfr3 expression, in words)” value was “stunted, disorganized lymphatic vessels arising from the ALS and ALH”. Besides, the ALH phenotype entry in assay [1] (anterior lymph heart, Xenopus embryos) is given as “dysplastic”. In addition, in assay [1] (anterior lymph sac, Xenopus embryos), the ALS phenotype result is reported as “stunted”. The ISV phenotype entry in assay [1] (intersomitic vessels, Xenopus embryos) is reported as “stunted”. Besides, the PCV phenotype entry in assay [1] (posterior cardinal vein, Xenopus embryos) is given as “normal”. In addition, the PLV phenotype result in assay [1] (posterior lymph vessels, Xenopus embryos) is reported as “hypoplastic”. For the same compound, in assay [1] (vitelline vein network, Xenopus embryos), the VVN phenotype entry is reported as “hypoplastic”. The activity at 10 µM with LEC [2] lay within 42 to 48%. Besides, the activity at 1 µM in the assay on HUVEC (overnight, read-out: HUVEC tube formation) was in the range of 50 to 85%. Further, in the assay with HUVEC (read-out: HUVEC tube formation (tube length)), the activity at 1 µM fell in the range of 50 to 85%. The activity at 1 µM with LEC [3] (overnight, read-out: LEC tube formation) fell in the range of 50 to 85%. Besides, in the assay on LEC [3] (read-out: LEC tube formation (tube length)), the activity at 1 µM lay in the range of 50 to 85%. For the same compound, the IC50 in the assay with LEC [3] (doses 0.2-2 μM, data not shown, read-out: IC50 of LEC tube formation) is 1300 nM. In assay [4], the “density of lymphatic vessels” value was “unchanged”, the “number of VEGFA-induced blood vessels” value was 36.49±1.49 and the “tissue area covered by lymphatic vessels surrounding VEGFA containing Matrigels” value turned out to be 0.89±0.18%. Besides, in assay [4] (3 mg/kg/day), the lymphatic vessel enlargement result was “potently inhibited; also recorded: reduction” and the “tissue area covered by blood vessels” value is given as “reduction; also recorded: reduced”.
